Measurements reported in US4489091A, “Antilipemic and anti-inflammatory compositions containing sulfonate derivatives” (Taiho Pharmaceutical Company Limited, priority 1980, dated 1984).
Read-outs that look alike come from different tables or passages of the source.

How the values were obtained:
triglycerides = test: Antilipemic effect: percent triglycerides inhibition in plasma of rats given an olive oil-cholesterol mixture; format: in vivo, male Wistar rats; conditions: for inhibition in vivo at 200 mg/kg: read-out: Anti-lipemic effect, TG (percent triglycerides inhibition), asterisked; for inhibition in vivo at 100 mg/kg: oral 100 mg/kg, read-out: Anti-lipemic effect, TG (percent triglycerides inhibition)
Method: (§1) The above compounds of this invention are tested by the following methods for antilipemic effect and acute toxicity. In the column of antilipemic effect in the table, the asterisked values indicate the effect achieved by orally giving 200 mg/kg of the compounds concerned, and the unmarked values, the effect attained by orally giving 100 mg/kg. In the same column, "TG" stands for percent triglycerides inhibition and "CS" percent cholesterol inhibition.
(§2) Seven-week-old male Wistar rats weighing 200 to 220 g are used, 5 rats in each group.
(§3) Each compound of the invention (100 mg or 200 mg) is dissolved in 10 ml of an olive oil-cholesterol mixture (containing 15% of cholesterol). The mixture containing the compound is orally given to the rat with a probe at a dose of 10 ml/kg. Two or 8 hours thereafter, 6 ml of whole blood is withdrawn from the descending aorta of the rat under ether anesthesia with a syringe containing heparin. The blood is centrifuged at 5° C. and 3000 r.p.m. to obtain the plasma. The plasma collected after the lapse of 2 hours is used for determining the triglycerides content, and the plasma obtained 8 hours later for determining the total cholesterol content, using a triglycerides measuring kit (trade mark "Triglycerides-B Test Wako," product of Wako Junyaku Co., Ltd., Japan) and a total cholesterol measuring kit (trade mark "Cholesterol Test Wako," product of the same), respectively. The olive oil-cholesterol mixture containing no compound is similarly given to a control group, while no treatment is conducted for a normal group. The triglycerides and total cholesterol contents in the plasma are also determined for these groups in the same manner as is the case with the test groups.
(§4) The present hyperlipidemia inhibition achieved by the present compound is given by [formula] in which A is the triglycerides (cholesterol) content of the control group, B is the triglycerides (cholesterol) content of the normal group, and C is the triglycerides (cholesterol) content of the group to which the present compound is given.

cholesterol = test: Antilipemic effect: percent total cholesterol inhibition in plasma of rats given an olive oil-cholesterol mixture; format: in vivo, male Wistar rats; conditions: plasma 8 hours after dosing, Wistar rat; for inhibition in vivo at 100 mg/kg: oral 100 mg/kg, read-out: Anti-lipemic effect, CS (percent cholesterol inhibition)
Method: as §1, §2, §3, §4

Acute toxicity = conditions: rat, in vivo
Source text: Six-week-old male Wistar rats weighing 180 to 200 g are used, 5 rats in each group. Each compound of the invention is suspended in a 30% aqueous solution of polyethylene glycol 6000 and orally given to the rat at the dosage shown in Table 2. The animals are checked for poisoning, body weight and survival to determine the LD50 value.

[1] = oral 200 mg/kg (asterisked values), plasma 2 hours after dosing, Wistar rat
[2] = plasma 2 hours after dosing, Wistar rat
[3] = oral, six-week-old male Wistar rats, suspended in 30% aqueous polyethylene glycol 6000, read-out: LD50

| Structure (SMILES) | inhibition in vivo at 200 mg/kg (triglycerides; [1]) [%] | inhibition in vivo at 100 mg/kg (triglycerides; [2]) [%] | LD50 (Acute toxicity; po) [mg/kg] | further results |
| --- | --- | --- | --- | --- |
| CCCC(=O)COS(=O)(=O)CCCOCC [Compound 2] | 65 |  |  |  |
| CCCC(=O)COS(=O)(=O)C1CCCCC1 [Compound 3] | 51 |  |  |  |
| CCCC(=O)COS(=O)(=O)Cc1ccccc1 [Compound 4] |  | 68 |  | inhibition in vivo at 100 mg/kg (cholesterol): 52% |
| CCCC(=O)COS(=O)(=O)c1ccccc1 [Compound 6, 2-oxopentylbenzene sulfonate] |  | 90 |  | LD50 (Acute toxicity; [3]): > 1000 mg/kg; inhibition in vivo at 100 mg/kg (cholesterol): 53% |
| CCCCC(=O)COS(=O)(=O)c1ccccc1 [Compound 7] |  | 98 |  | inhibition in vivo at 100 mg/kg (cholesterol): 67% |
| CC(C)(C)CC(=O)COS(=O)(=O)c1ccccc1 [Compound 11] |  | 80 | > 3000 | inhibition in vivo at 100 mg/kg (cholesterol): 53% |
| CC(C)CCC(=O)COS(=O)(=O)c1ccccc1 [Compound 12] |  | 95 | > 2500 | inhibition in vivo at 100 mg/kg (cholesterol): 63% |
| CC=CC(=O)COS(=O)(=O)c1ccccc1 [Compound 13] |  | 72 |  |  |
| CCC(=O)COS(=O)(=O)c1ccc(C)cc1 [Compound 15] |  | 40 | > 1500 | inhibition in vivo at 100 mg/kg (cholesterol): 41% |
| CCCC(=O)COS(=O)(=O)c1ccc(C)cc1 [Compound 16, 2-oxopentyl-p-toluenesulfonate] |  | 64 |  | LD50 (Acute toxicity; [3]): > 1500 mg/kg; inhibition in vivo at 100 mg/kg (cholesterol): 31% |
| CCCCC(=O)COS(=O)(=O)c1ccc(C)cc1 [Compound 17] |  | 61 | > 2000 | inhibition in vivo at 100 mg/kg (cholesterol): 33% |
| CCCCCCCC(=O)COS(=O)(=O)c1ccc(C)cc1 [Compound 20] |  | 71 | > 3000 | inhibition in vivo at 100 mg/kg (cholesterol): 47% |
| CCCCCCCCC(=O)COS(=O)(=O)c1ccc(C)cc1 [Compound 21] | 70 |  | > 3000 | Anti-lipemic effect, CS (percent cholesterol inhibition), asterisked (cholesterol; oral 200 mg/kg (asterisked values)): 43% |
| CCCCCCCCCC(=O)COS(=O)(=O)c1ccc(C)cc1 [Compound 22] | 62 |  | > 3000 |  |
| CCCCCCCCCCC(=O)COS(=O)(=O)c1ccc(C)cc1 [Compound 23] | 64 |  | > 3000 |  |
| CCCCCCCCCCCCC(=O)COS(=O)(=O)c1ccc(C)cc1 [Compound 24] | 63 |  | > 3000 |  |
| CCCCCCCCCCCCCCC(=O)COS(=O)(=O)c1ccc(C)cc1 [Compound 25] | 62 |  | > 3000 |  |
| Cc1ccccc1S(=O)(=O)OCC(=O)CCCCCCC(C)C [Compound 33] | 67 |  | > 3000 |  |
| CCCCCCCCCCCC(=O)COS(=O)(=O)c1ccc(OC)cc1 [Compound 39] | 58 |  | > 4000 |  |
| C=CCCCCCCCCC(=O)COS(=O)(=O)c1ccc(OC)cc1 [Compound 42] | 57 |  | > 4000 |  |

| Structure (SMILES) | inhibition in vivo at 200 mg/kg (triglycerides; [1]) [%] | inhibition in vivo at 100 mg/kg (triglycerides; [2]) [%] | LD50 (Acute toxicity; po) [mg/kg] | further results |
| --- | --- | --- | --- | --- |
| CCCCOc1ccc(S(=O)(=O)OCC(=O)CCCC)cc1 [Compound 54] |  | 48 | > 2000 |  |
| CCCCCCCCCC(=O)COS(=O)(=O)c1ccc(OCCCC)cc1 [Compound 57] | 52 |  | > 4000 |  |
| CCCCOc1ccc(S(=O)(=O)OCC(=O)CCC(C)C)cc1 [Compound 58] | 61 |  | > 4000 |  |
| CCCC(=O)COS(=O)(=O)c1ccc(O)cc1 [Compound 59] |  | 70 | > 3000 |  |
| CCCCCC(=O)COS(=O)(=O)c1ccc(O)cc1 [Compound 60] |  | 83 | > 3000 |  |
| CCCCCCCCC(=O)COS(=O)(=O)c1ccc(O)cc1 [Compound 61] |  | 67 | > 3000 |  |
| CCC(C)C(=O)COS(=O)(=O)c1ccc(O)cc1 (stereo not drawn) [Compound 63] |  | 76 | > 2000 |  |
| CCCCCCC(=O)COS(=O)(=O)c1ccc(Cl)cc1 [Compound 67] |  | 80 | > 2000 |  |
| CCCCCCCCCC(=O)COS(=O)(=O)c1ccc(Cl)cc1 [Compound 68, 2-oxo-undecyl-p-chlorobenzene sulfonate] |  | 62 |  | LD50 (Acute toxicity; [3]): > 3000 mg/kg |
| CCCCCCCCCCC(=O)COS(=O)(=O)c1ccc(Cl)cc1 [Compound 69] | 77 |  | > 3000 |  |
| CC(=O)COS(=O)(=O)c1c(C)cc(C)cc1C [Compound 71] |  | 60 |  | inhibition in vivo at 100 mg/kg (cholesterol): 82% |
| CCCCCCCCCC(=O)COS(=O)(=O)c1c(C)cc(C)cc1C [Compound 79] | 61 |  | > 4000 |  |
| CCCCCCCCCCCC(=O)COS(=O)(=O)c1c(C)cc(C)cc1C [Compound 81] | 60 |  | > 4000 |  |
| CCCCC(CC)C(=O)COS(=O)(=O)c1c(C)cc(C)cc1C (stereo not drawn) [Compound 84] |  | 59 | > 4000 |  |
| Cc1cc(C)c(S(=O)(=O)OCC(=O)CCCCCCC(C)C)c(C)c1 [Compound 85] |  | 48 | > 4000 |  |
| CCCCC=CCC(=O)COS(=O)(=O)c1c(C)cc(C)cc1C [Compound 87] | 57 |  |  |  |
| C=CCCCCCCCCC(=O)COS(=O)(=O)c1c(C)cc(C)cc1C [Compound 88] | 66 |  | > 4000 |  |
| CCCC(=O)COS(=O)(=O)c1c(C)c(C)cc(C)c1C [Compound 89] | 56 |  | > 3000 |  |
| CCCCCCCC(=O)COS(=O)(=O)c1c(C)c(C)cc(C)c1C [Compound 91] | 47 |  | > 3000 |  |
| CCCCCCCCCCC(=O)COS(=O)(=O)c1c(C)c(C)cc(C)c1C [Compound 92] | 43 |  |  | LD50 (Acute toxicity; [3]): > 3000 mg/kg |

| Structure (SMILES) | inhibition in vivo at 200 mg/kg (triglycerides; [1]) [%] | inhibition in vivo at 100 mg/kg (triglycerides; [2]) [%] | LD50 (Acute toxicity; po) [mg/kg] | further results |
| --- | --- | --- | --- | --- |
| C=CCCC(=O)COS(=O)(=O)c1c(C)c(C)cc(C)c1C [Compound 93] | 60 |  | > 3000 |  |
| Cc1cc(C)c(C)c(S(=O)(=O)OCC(=O)CCCCCCC(C)C)c1C [Compound 94] | 51 |  | > 3000 |  |
| CCCC(=O)COS(=O)(=O)c1cccc(C(=O)O)c1 [Compound 102] | 42 |  | > 3000 |  |
| CCCC(=O)COS(=O)(=O)c1ccc(NC(C)=O)cc1 [Compound 103] | 51 |  | > 3000 |  |
| CCCCCCCCCCCCc1ccc(S(=O)(=O)OCC(=O)CCC)cc1 [Compound 104] | 56 |  | > 3000 |  |
| CCCC(=O)COS(=O)(=O)c1ccccc1C1OCCO1 [Compound 105] | 55 |  | > 3000 |  |
| CCCC(=O)COS(=O)(=O)c1ccc([N+](=O)[O-])cc1 [Compound 106] | 60 |  |  |  |
| CCCC(=O)COS(=O)(=O)c1cc(Cl)ccc1Cl [Compound 107] |  | 75 | > 1500 |  |
| CCCC(=O)COS(=O)(=O)c1ccc(C)c(Cl)c1 [Compound 108] |  | 64 | > 1500 |  |
| CCCC(=O)COS(=O)(=O)c1ccc(Cl)cc1O [Compound 109] | 82 |  | > 2000 |  |
| CCCC(=O)COS(=O)(=O)c1ccc(O)c(OC)c1 [Compound 110] |  | 70 |  |  |
| CCCC(=O)COS(=O)(=O)c1cc(Cl)c(Cl)cc1Cl [Compound 113] |  | 60 | > 1500 |  |
| CCCC(=O)COS(=O)(=O)c1c(C(C)C)cc(C(C)C)cc1C(C)C [Compound 115] | 67 |  | > 3000 |  |
| CCCC(=O)COS(=O)(=O)c1c(C)c(C)c(C)c(C)c1C [Compound 118] | 76 |  | > 3000 |  |
| CCCC(=O)COS(=O)(=O)c1cc(Br)ccc1OC [Compound 119] |  | 67 | > 2000 |  |
| CCCC(C)CC(=O)COS(=O)(=O)c1ccc(OCC)cc1 (stereo not drawn) [Compound 142] |  | 47 | > 4000 |  |
| CCOc1ccc(S(=O)(=O)OCC(=O)CCC(CC)CC)cc1 [Compound 144] |  |  |  | inhibition in vivo at 200 mg/kg (triglycerides; Rattus norvegicus, po, 2 h): 55%; LD50 (Acute toxicity; [3]): > 4000 mg/kg |
| CCOc1ccc(S(=O)(=O)OCC(=O)CCC2CCCCC2)cc1 [Compound 174] |  |  |  | TG (percent triglycerides inhibition), Table 3 (triglycerides; Table 3, dose not given): 100% |
